Laboratory results published in patent publication US8415469B2, “Compounds and methods for kinase modulation, and indications therefor” (Plexxikon Inc., priority 2005, dated 2013).
pIC50: −log10 of the molar value.

Each molecule was assayed against T1, B-Raf V600E (Homo sapiens, UniProt P15056, V600E) (assay: AlphaScreen kinase assay, B-Raf V600E). Settings: read-out: IC50, activity toward kinase B-Raf V600E.
T1 construct: P4254. pFastBacBD-CDC37 BRAF D437-K722-X, V600E; His6 with pFastBac HT leader (TEV site) (N); made in house; host or cells: Sf9 (baculovirus; chaperone CDC37 co-expressed)
Type: biochemical

T1 sequence (P15056 with tags, fused parts or gaps V600E): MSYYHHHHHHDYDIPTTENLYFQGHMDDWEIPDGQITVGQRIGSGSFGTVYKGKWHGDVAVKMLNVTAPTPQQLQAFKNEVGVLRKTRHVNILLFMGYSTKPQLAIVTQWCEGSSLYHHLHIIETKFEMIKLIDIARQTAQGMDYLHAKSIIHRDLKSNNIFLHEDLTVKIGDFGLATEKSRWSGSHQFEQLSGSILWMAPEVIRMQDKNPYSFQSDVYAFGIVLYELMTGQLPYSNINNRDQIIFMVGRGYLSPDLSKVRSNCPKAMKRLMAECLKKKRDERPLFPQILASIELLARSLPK

SMILES	pIC50
CC(C)(C)c1ccc(OCc2nc(-c3ccnc4[nH]ccc34)no2)cc1 [Compound P-1187]	≥ 5.00
COc1ccc(-c2c[nH]c3ncccc23)cc1OCc1ccccc1 [Compound P-0886]	≥ 5.00
Cc1cc(-c2nc(-c3ccnc4[nH]ccc34)no2)n(C(C)(C)C)n1 [Compound P-0893]	≥ 5.00
CC(C)Oc1cccc(Nc2cnc3[nH]ccc3c2)c1 [Compound P-1049]	≥ 5.00
COc1ccc(Cc2nc(-c3ccnc4[nH]ccc34)no2)cc1 [Compound P-0696]	≥ 5.00
O=C(Nc1ccc(Cc2c[nH]c3ncccc23)cc1)c1ccccc1 [Compound P-0803]	≥ 5.00
OCc1cccc(-c2ccnc3[nH]cc(Sc4ccc(Cl)cc4)c23)c1 [Compound P-0388]	≥ 5.00
OCc1cccc(-c2ccnc3[nH]cc(Sc4cc(Cl)cc(Cl)c4)c23)c1 [Compound P-0600]	≥ 5.00
COC(=O)c1cccc(C#Cc2c[nH]c3ncc(-c4ccc(OC)c(OC)c4)cc23)c1 [Compound P-0646]	≥ 5.00
O=C(c1c(F)ccc(N(Cc2ccccc2)Cc2ccccc2)c1F)c1c[nH]c2ncc(-c3cccnc3)cc12 [Compound P-1074]	≥ 5.00
O=C(c1cc([N+](=O)[O-])ccc1Cl)c1c[nH]c2ncccc12 [Compound P-0592]	≥ 5.00
Fc1ccc(Nc2cnc3[nH]ccc3c2)cc1 [Compound P-1091]	≥ 5.00
COc1cnc2[nH]cc(C(O)c3c(F)ccc(NS(=O)(=O)c4ccc(C(F)(F)F)cc4)c3F)c2c1 (stereo not shown) [Compound P-1540]	≥ 5.00
CC(C)(C)OC(=O)Nc1ccc(-c2c[nH]c3ncccc23)cc1 [Compound P-1195]	≥ 5.00
FC(F)(F)Oc1cccc(Cc2c[nH]c3nccc(Br)c23)c1 [Compound P-1123]	≥ 5.00
Oc1ccc(F)c(C(O)c2c[nH]c3ncc(Br)cc23)c1F (stereo not shown) [Compound P-1180, 3-[(5-Bromo-1H-pyrrolo[2,3-b]pyridin-3-yl)-hydroxy-methyl]-2,4-difluoro-phenol]	≥ 5.00
CCC(C)c1ccc(Nc2cnc3[nH]ccc3c2)cc1 (stereo not shown) [Compound P-1128]	≥ 5.00
c1cnc2[nH]cc(-c3noc(CCC4CCCC4)n3)c2c1 [Compound P-0833]	≥ 5.00
FC(F)(F)c1ccc(-c2c[nH]c3ncccc23)cc1 [Compound P-1179]	≥ 5.00
CN(C)S(=O)(=O)N(C)c1ccc(F)c(C(=O)c2c[nH]c3ncc(Cl)cc23)c1F [Compound P-1666]	≥ 5.00
FC(F)(F)c1cccc(-c2ccnc3[nH]cc(Sc4cccs4)c23)c1 [Compound P-0651]	≥ 5.00

SMILES	pIC50
CCC(C)Cc1c[nH]c2ncccc12 (stereo not shown) [Compound P-0386]	≥ 5.00
Cn1nc(C(C)(C)C)cc1-c1nc(-c2c[nH]c3ncccc23)no1 [Compound P-1177]	≥ 5.00
COc1ccc(S(=O)(=O)Nc2ccc(F)c(C(=O)c3c[nH]c4ncccc34)c2F)cc1OC [Compound P-1090, N-[2,4-Difluoro-3-(1H-pyrrolo[2,3-b]pyridine-3-carbonyl)-phenyl]-3,4-dimethoxy-benzenesulfonamide]	≥ 5.00
O=C(c1c(F)ccc(NS(=O)(=O)c2ccc(-c3cnco3)cc2)c1F)c1c[nH]c2ncc(Cl)cc12 [Compound P-1843, N-[3-(5-Chloro-1H-pyrrolo[2,3-b]pyridine-3-carbonyl)-2,4-difluoro-phenyl]-4-oxazol-5-yl-benzenesulfonamide]	≥ 5.00
N#Cc1ccc(CCc2c[nH]c3ncccc23)cc1 [Compound P-1199]	≥ 5.00
c1ccc(Cc2nc(-c3ccnc4[nH]ccc34)no2)cc1 [Compound P-0381]	≥ 5.00
COC(c1ccc(Br)cc1)c1c[nH]c2ncccc12 (stereo not shown) [Compound P-0552]	≥ 5.00
Fc1cc(F)cc(-c2ccnc3[nH]cc(Sc4ccccc4)c23)c1 [Compound P-0311]	≥ 5.00
Cn1ccc2cc(-c3c[nH]c4ncccc34)ccc21 [Compound P-0713]	≥ 5.00
c1ccc(CNc2ccc(Cc3c[nH]c4ncccc34)cc2)cc1 [Compound P-0493]	≥ 5.00
Cc1cc(C)cc(-c2ccnc3[nH]cc(Sc4cccs4)c23)c1 [Compound P-0255]	≥ 5.00
O=[N+]([O-])c1cccc(Sc2c[nH]c3nccc(-c4cc(F)cc(F)c4)c23)c1 [Compound P-0816]	≥ 5.00
COc1ccccc1-c1c[nH]c2ncccc12 [Compound P-0358]	≥ 5.00
CC(C)(C)OC(=O)Nc1ccc(Cl)c(C(O)c2c[nH]c3ncccc23)c1F (stereo not shown) [Compound P-1140]	≥ 5.00
Fc1cccc(Nc2cnc3[nH]ccc3c2)c1 [Compound P-1035]	≥ 5.00
COC(c1ccc(N(Cc2ccc(Cl)cc2)C(=O)OC(C)(C)C)nc1)c1c[nH]c2ncccc12 (stereo not shown) [Compound P-1183]	≥ 5.00
COc1ccc(OC)c(S(=O)(=O)Nc2ccc(F)c(C(=O)c3c[nH]c4ncccc34)c2F)c1 [Compound P-1131, N-[2,4-Difluoro-3-(1H-pyrrolo[2,3-b]pyridine-3-carbonyl)-phenyl]-2,5-dimethoxy-benzenesulfonamide]	≥ 5.00
CCCCN(c1ccc(F)c(Cc2c[nH]c3ncc(-c4cccnc4)cc23)c1F)S(=O)(=O)c1ccc(C(F)(F)F)cc1 [Compound P-1444]	≥ 5.00
Cc1nc2ccc(Nc3cnc4[nH]ccc4c3)cc2s1 [Compound P-1030]	≥ 5.00
CCCS(=O)(=O)Nc1cccc(C(O)c2c[nH]c3ncc(Br)cc23)c1C (stereo not shown) [Compound P-1607]	≥ 5.00

These molecules were tested against T2, FGFR1 (Homo sapiens, UniProt P11362, C488A/C584S) (assay: AlphaScreen kinase assay, FGFR1). Settings: read-out: IC50, activity toward kinase FGFR.
T2 construct: P1351.pET N6 BI-PTP FGFR A458-E765-X C488A, C584S; made in house; host or cells: E. coli (PTP1B co-expressed)
Type: biochemical

T2 sequence (P11362 458-765 C488A/C584S): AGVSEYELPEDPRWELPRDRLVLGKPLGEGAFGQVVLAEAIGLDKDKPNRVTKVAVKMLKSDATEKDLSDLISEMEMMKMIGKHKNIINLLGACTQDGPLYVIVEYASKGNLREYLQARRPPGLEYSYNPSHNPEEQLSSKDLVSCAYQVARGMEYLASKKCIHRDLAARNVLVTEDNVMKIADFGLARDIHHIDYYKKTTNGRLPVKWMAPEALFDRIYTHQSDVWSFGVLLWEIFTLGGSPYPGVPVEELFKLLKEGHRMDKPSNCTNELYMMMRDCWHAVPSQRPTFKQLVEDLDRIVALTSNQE

SMILES	pIC50
OC(c1cccc2c1OC(F)(F)O2)c1c[nH]c2ncc(Br)cc12 (stereo not shown) [Compound P-1512]	≥ 5.00
O=C(c1c[nH]c2ncc(Br)cc12)c1cccc2c1ccn2S(=O)(=O)c1ccccc1 [Compound P-1524, (1-Benzenesulfonyl-1H-indol-4-yl)(5-bromo-1H-pyrrolo[2,3-b]pyridin-3-yl)-methanone]	≥ 5.00
O=C(c1c(F)ccc(OCc2ccccc2)c1F)c1c[nH]c2ncc(-c3cccnc3)cc12 [Compound P-1467, (3-Benzyloxy-2,6-difluoro-phenyl)-(5-pyridin-3-yl-1H-pyrrolo[2,3-b]pyridin-3-yl)-methanone]	≥ 5.00
COCCOc1ccc(F)c(C(=O)c2c[nH]c3ncc(Br)cc23)c1F [Compound P-1453, (5-Bromo-1H-pyrrolo[2,3-b]pyridin-3-yl)-[2,6-difluoro-3-(2-methoxy-ethoxy)-phenyl]-methanone]	≥ 5.00
O=C(c1c(F)ccc([N+](=O)[O-])c1F)c1c[nH]c2ncc(Br)cc12 [Compound P-1182]	≥ 5.00
COc1cccc(C(=O)c2c[nH]c3ncc(-c4cc(F)cc(F)c4)cc23)c1 [Compound P-0474]	≥ 5.00
O=C(c1cccc(Cl)c1Cl)c1c[nH]c2ncc(Br)cc12 [Compound P-0294]	≥ 5.00
Cc1ccc(Cc2c[nH]c3ncccc23)cc1C [Compound P-0368]	≥ 5.00
COCCOc1ccc(F)c(Cc2c[nH]c3ncc(Br)cc23)c1F [Compound P-1454, 5-Bromo-3-[2,6-difluoro-3-(2-methoxy-ethoxy)-benzyl]-1H-pyrrolo[2,3-b]pyridine]	≥ 5.00
O=C(c1c(F)ccc(N(Cc2ccccc2)Cc2ccccc2)c1F)c1c[nH]c2ncc(-c3cccnc3)cc12 [Compound P-1074]	≥ 5.00
COCCOc1ccc(F)c(C(=O)c2c[nH]c3ncc(OC)cc23)c1F [Compound P-1584, [2,6-Difluoro-3-(2-methoxy-ethoxy)-phenyl]-(5-methoxy-1H-pyrrolo[2,3-b]pyridin-3-yl)-methanone]	≥ 5.00
CC(C)(C)c1ccc(Cc2c[nH]c3ncccc23)cc1 [Compound P-0828]	≥ 5.00
O=C(c1cccc([N+](=O)[O-])c1)c1c[nH]c2ncccc12 [Compound P-0219]	≥ 5.00
COc1ccc(Cc2c[nH]c3ncc(Br)cc23)c(F)c1 [Compound P-1322]	≥ 5.00
Fc1ccc(OCc2ccccc2)c(F)c1Cc1c[nH]c2ncc(-c3cccnc3)cc12 [Compound P-1455, 3-(3-Benzyloxy-2,6-difluoro-benzyl)-5-pyridin-3-yl-1H-pyrrolo[2,3-b]pyridine]	≥ 5.00
FC(F)(F)Oc1cccc(Cc2c[nH]c3nccc(Br)c23)c1 [Compound P-1123]	≥ 5.00

SMILES	pIC50
O=C(c1c(F)ccc(Cl)c1F)c1c[nH]c2ncccc12 [Compound P-1272]	≥ 5.00
Fc1cc(F)cc(Cc2c[nH]c3ncccc23)c1 [Compound P-0374]	≥ 5.00
O=C(c1ccc2ccccc2n1)c1c[nH]c2ncccc12 [Compound P-0479]	≥ 5.00
Cc1ccc(F)c(C(=O)c2c[nH]c3ncccc23)c1F [Compound P-1274]	≥ 5.00
COc1cccc(Cc2c[nH]c3nccc(-c4cccc(OC)c4)c23)c1 [Compound P-0979]	≥ 5.00
Cc1ccc(F)cc1C(=O)c1c[nH]c2ncc(Br)cc12 [Compound P-0424]	≥ 5.00
c1cnc2[nH]cc(Cc3ccc(NCC4CC4)nc3)c2c1 [Compound P-0400]	≥ 5.00
c1ccc(CNc2ccc(Cc3c[nH]c4ncccc34)cc2)cc1 [Compound P-0493]	≥ 5.00
CCCNS(=O)(=O)c1ccc(NCC)c(C(=O)c2c[nH]c3ncccc23)c1F [Compound P-1273]	≥ 5.00
c1ccc2cc(Cc3c[nH]c4ncccc34)ccc2c1 [Compound P-0575]	≥ 5.00
COc1cccc(Cc2c[nH]c3ncc(-c4ccc(C(=O)C(F)(F)F)[nH]4)cc23)c1 [Compound P-0309]	≥ 5.00
CC(C)Nc1ccc(C(=O)c2c[nH]c3ncccc23)cn1 [Compound P-0227]	≥ 5.00
Brc1ccc(Cc2c[nH]c3ncccc23)cc1 [Compound P-0615]	≥ 5.00
COc1ccc([N+](=O)[O-])cc1C(OC)c1c[nH]c2ncc(Br)cc12 (stereo not shown) [Compound P-1287]	≥ 5.00
Cc1cc(Cc2c[nH]c3ncccc23)ccc1F [Compound P-0510]	≥ 5.00
COc1cnc2[nH]cc(C(=O)c3c(F)ccc(OCc4ccccc4)c3F)c2c1 [Compound P-1597, (3-Benzyloxy-2,6-difluoro-phenyl)-(5-methoxy-1H-pyrrolo[2,3-b]pyridin-3-yl)-methanone]	≥ 5.00
